Laboratory results taken from ChEMBL document CHEMBL3244166, “Syntheses and biological activities of basically substituted isoalloxazines” (J Med Chem, 1978).

Assays:
[1] = test system: Rattus norvegicus; test: Induction of riboflavin-like activity in weanling Wistar rat assessed as change in body weight at 2 mg/kg/day administered by stomach tube prior to feeding with riboflavin-deficient diet measured for 28 days in presence of 20 ug/day riboflavin (reference value: 3 +/- 1 g); format: functional
[2] = test system: Rattus norvegicus; test: In vivo inhibition of riboflavin activity in weanling Wistar rat assessed as change in body weight at 2 mg/kg/day administered by stomach tube prior to feeding with riboflavin-deficient diet measured for 28 days (reference value: 3 +/- 1 g); format: functional
[3] = Toxicity in weanling Wistar rat assessed as survival at 2 mg/rat/day administered by stomach tube prior to feeding with riboflavin-deficient diet measured for 28 days relative to control; settings: in vivo, oral
[4] = test system: Rattus norvegicus; test: Induction of riboflavin-like activity in weanling Wistar rat assessed as change in body weight at 2 mg/kg/day administered by stomach tube prior to feeding with riboflavin-deficient diet measured for 28 days in presence of 40 ug/day riboflavin (reference value: 3 +/- 1 g); format: functional
[5] = test system: Rattus norvegicus; test: In vivo inhibition of riboflavin activity in weanling Wistar rat assessed as decrease in body weight at 2 mg/kg/day administered by stomach tube prior to feeding with riboflavin-deficient diet measured for >= 14 days (reference value: 3 +/- 1 g); format: functional
[6] = test system: Rattus norvegicus; test: Induction of riboflavin-like activity in weanling Wistar rat assessed as change in body weight at 2 mg/kg/day administered by stomach tube prior to feeding with riboflavin-deficient diet measured for 28 days in presence of 60 ug/day riboflavin (reference value: 3 +/- 1 g); format: functional

SMILES | Activity [1] [g] | Activity [2] [g] | survival at 672 h [3] [%] | Activity [4] [g] | Activity [5] [g] | Activity [6] [g]
Cc1cc2nc3c(=O)[nH]c(=O)nc-3n(CCN(CCO)CCO)c2cc1C | 35 | -10 | 40 |  |  | 
O=c1nc2n(CCN(CCO)CCO)c3cc(Cl)c(Cl)cc3nc-2c(=O)[nH]1 |  | 6 | 100 |  |  | 
Cc1cc2c(cc1Cl)nc1c(=O)[nH]c(=O)nc-1n2CCN(CCO)CCO.Cl |  | -8 | 100 |  |  | 
Cc1cc2nc3c(=O)[nH]c(=O)nc-3n(CCN(CCO)CCO)c2cc1Cl.Cl |  | 0 | 100 |  |  | 
CCc1cc2nc3c(=O)[nH]c(=O)nc-3n(CCN(CCO)CCO)c2cc1C.Cl | -2 | -25 | 60 | 21 |  | 
CCc1cc2nc3c(=O)[nH]c(=O)nc-3n(CCN(CCO)CCO)c2cc1CC.Cl | -9 |  | 25 | 7 | -26 | 33
